Test results taken from PubChem BioAssay AID1259407 (Chemical Carcinogenesis Research Information System (CCRIS), 2018).
Calls of active or inactive are those of the source. How the calls were made is not given here.

Tested on: CCRIS mutagenicity, Ames/micronucleus/aberration tests
Assay: CCRIS mutagenicity studies
Conditions: Test System: AMES SALMONELLA TYPHIMURIUM, Method: PREINCUBATION

Structure (SMILES)	mutagenic call (Strain/Indicator: TA97, Metabolic Activation: NONE)	mutagenic call (Strain/Indicator: TA97, Metabolic Activation: RAT, LIVER, S-9, AROCLOR 1254)	mutagenic call (Strain/Indicator: TA102, Metabolic Activation: NONE)	mutagenic call (Strain/Indicator: TA102, Metabolic Activation: RAT, LIVER, S-9, AROCLOR 1254)	mutagenic call (Strain/Indicator: TA100, Metabolic Activation: RAT, LIVER, S-9, PHENOBARBITAL AND 5,6-BENZOFLAVONE)
O=C(O)CCC(=O)O	inactive; negative	inactive; negative	inactive; negative	inactive; negative	
CC(=O)Nc1cccc2cc(F)cnc12					active; positive
